Experimental data: patent US9611230B2, “1,3,4-oxadiazole benzoic acid compounds and their use for nonsense suppression and the treatment of disease” (PTC Therapeutics, Inc., priority 2004, dated 2017)

Structure (SMILES) | melting point
CC(C)c1ccc(-c2cc(-c3cccc(C(=O)O)c3)cs2)cc1 [Compound No. 348, 3-[5-(4-isopropylphenyl)thiophen-3-yl]benzoic acid] | 208 to 209 °C
COc1cccc(-c2cnc(-c3cccc(C(=O)O)c3)o2)c1 [Compound 594] | 207 to 208 °C
CC(C)c1ccc(-c2cc(-c3cccc(C(=O)O)c3)on2)cc1 [Compound 291] | 200 to 212 °C
O=C(O)c1ccc(-c2ncc(-c3ccc4c(c3)OCCO4)o2)cc1 [Compound 631] | 308 to 309 °C
O=C(O)c1cccc(-c2cc(-c3ccc(Cl)cc3)no2)c1 [Compound No. 503, 3-[3-(4-chlorophenyl)isoxazol-5-yl]benzoic acid] | 265 to 266 °C
O=C(O)c1cccc(-c2nc(-c3ccc4c(c3)OCO4)no2)c1 [Compound 510] | 245 to 246 °C
CC(C)c1ccc(-c2nnc(-c3ccc(C(=O)O)cc3)s2)cc1 [Compound No. 324, 4-[5-(4-isopropylphenyl)-[1,3,4]thiadiazol-2-yl]benzoic acid] | > 300 °C
CC(C)c1ccc(-c2nc(-c3cccc(C(=O)O)c3)ns2)cc1 [Compound No. 323, 3-[5-(4-isopropylphenyl)-[1,2,4]thiadiazol-3-yl]-benzoic acid] | 165 to 167 °C
O=C(O)c1cccc(-c2cc(-c3ccc(C(F)(F)F)cc3)on2)c1 [Compound 574] | 281 to 282 °C
O=C(O)c1cccc(-c2nnc(-c3cc4ccccc4[nH]3)o2)c1 [Compound 315] | > 310 °C
O=C(O)c1cccc(-c2noc(-c3ccccc3)c2C(=O)O)c1 [Compound 483] | 255 to 257 °C
O=C(O)c1ccc(-c2cc(-c3ccc(F)cc3)on2)cc1 [Compound 530] | 318 to 319 °C
O=C(O)c1cccc(-c2ncc(-c3cccc(OC(F)(F)F)c3)o2)c1 [Compound 587] | 210 to 211 °C
COc1ccccc1-c1cnc(-c2ccc(C(=O)O)cc2)o1 [Compound 645] | 305 to 306 °C
COc1ccc(-c2nnc(-c3ccc(C(C)C)cc3)o2)cc1C(=O)O [Compound 402] | 174 to 177 °C
COc1ccc(-c2n[nH]c(-c3cccc(C(=O)O)c3)n2)cc1 [Compound No. 424, 3-[5-(4-methoxy-phenyl)-2H-[1,2,4]triazol-3-yl]-benzoic acid] | 287 to 289 °C
O=C(O)c1cccc(-c2nc(-c3ccc(Br)cc3)n[nH]2)c1 [Compound 423] | 309 to 311 °C
CC(C)(C)c1ccc(-c2cnc(-c3cccc(C(=O)O)c3)o2)cc1 [Compound 592] | 224 to 225 °C
CC(C)(C)c1ccc(-c2cnc(-c3ccc(C(=O)O)cc3)o2)cc1 [Compound 636] | 258 to 259 °C
COc1ccc(-c2n[nH]c(-c3cccc(C(=O)O)c3)n2)cc1OC [Compound 460] | 275 to 278 °C
CN(C)c1ccc(-c2nnc(-c3cccc(C(=O)[O-])c3)o2)cc1.[Na+] [Compound 624] | 227 to 235 °C (dec.)
CC(C)c1ccc(-c2nnc(-c3cccc(C(=O)O)c3)o2)cc1 [Compound 6, 3-[5-(4-isopropylphenyl)-[1,3,4]oxadiazol-2-yl]benzoic acid] | 202 to 204 °C
COc1ccc(-c2noc(-c3cccc(C(=O)O)c3)n2)cc1 [Compound 509] | 281.5 to 283 °C
O=C(O)c1ccc(-c2cc(-c3ccccc3F)on2)cc1 [Compound 529] | 292.5 to 293.5 °C
Cc1ccc(-c2cc(-c3ccc(C(=O)O)cc3)on2)cc1 [Compound 541] | 307 to 308 °C
O=C(O)c1cccc(-c2ncc(-c3ccccc3Cl)o2)c1 [Compound 582] | 236 to 237 °C

Structure (SMILES) | melting point
O=C(O)c1ccc(-c2ncc(-c3ccc4c(c3)OCO4)o2)cc1 [Compound 557] | 269 to 270 °C
O=C(O)c1cccc(-c2ncc(-c3cccc(Cl)c3)o2)c1 [Compound 583] | 220 to 222 °C
O=C(O)c1cccc(-c2cc(-c3ccc(F)cc3)on2)c1 [Compound 476] | 266.5 to 268 °C
O=C(O)c1ccc(-c2ncc(-c3cc(F)ccc3F)o2)cc1 [Compound 630] | 301 to 302 °C
O=C(O)c1cccc(-c2ncc(-c3cccc(F)c3)o2)c1 [Compound 580] | 223 to 224.5 °C
O=C(O)c1ccc(-c2ncc(-c3cc(F)cc(F)c3)o2)cc1 [Compound 641] | 273 to 274 °C
CC(C)c1cccc(-c2cnc(-c3cccc(C(=O)O)c3)o2)c1 [Compound 591] | 213 to 215 °C
O=C(O)c1cccc(-c2cc(-c3ccccc3F)on2)c1 [Compound 463] | 221 to 222 °C
O=C(O)c1ccc(-c2nnc(-c3ccnc(Cl)c3)o2)cc1 [Compound 225] | > 285 °C
CN(C)c1ccc(-c2nnc(-c3ccccc3C(=O)O)o2)cc1 [Compound 606] | 197 to 200 °C
O=C(O)c1cccc(-c2nnc(-c3ccc(Cl)nc3)o2)c1 [Compound 222] | 278 to 282 °C
O=C(O)c1cccc(-c2cc(-c3ccc(Br)cc3F)on2)c1 [Compound 482] | 283.5 to 285 °C
O=C(O)c1ccc(-c2nnc(-c3ccc(C(=O)N4CCCCC4)cc3)o2)cc1 [Compound 286] | > 310 °C
O=C(O)c1cccc(-c2nc(-c3ccc(-c4ccccc4)cc3)n[nH]2)c1 [Compound 429] | > 300 °C
O=C(O)c1cccc(-c2nc(-c3cccnc3)n[nH]2)c1 [Compound 428] | > 310 °C
CN(C)c1cccc(-c2nnc(-c3ccccc3C(=O)O)o2)c1 [Compound 609] | 71 to 78 °C
COc1ccc(-c2cc(-c3cccc(C(=O)O)c3)no2)cc1 [Compound 480] | 249.5 to 251 °C
O=C(O)c1cccc(-c2cc(-c3cccc(F)c3)no2)c1 [Compound 502] | 264 to 265 °C
O=C(O)c1cccc(-c2nc(-c3ccccc3F)n[nH]2)c1 [Compound 425] | > 310 °C
CC(C)c1cccc(-c2nnc(-c3ccc(C(=O)O)cc3)o2)c1 [Compound 7] | 227 to 229 °C
CC(C)c1ccc(-c2csc(-c3cccc(C(=O)O)c3)n2)cc1 [Compound No. 289, 3-[4-(4-isopropylphenyl)thiazol-2-yl]-benzoic acid] | 206 to 208 °C
CN(C)c1ccccc1-c1nnc(-c2cccc(C(=O)O)c2)o1 [Compound 605] | 170 to 172 °C
CC(C)(C)C1CCC(c2nnc(-c3cccc(C(=O)O)c3)o2)CC1 (stereo not drawn) [Compound 622] | 245 to 247 °C
O=C(O)c1ccc(-c2ncc(-c3ccccc3F)o2)cc1 [Compound 550] | 272 to 273 °C
CC(C)c1ccc(-c2nc(-c3cccc(C(=O)O)c3)cs2)cc1 [Compound No. 312, 3-[2-(4-isopropylphenyl)thiazol-4-yl]-benzoic acid] | 193 to 195 °C

Further lines, results first:

melting point | Structure (SMILES)
236 to 239 °C | CC(C)c1ccc(-c2coc(-c3cccc(C(=O)O)c3)c2C(=O)O)cc1 [Compound No. 314, 2-(3-carboxyphenyl)-4-(4-isopropylphenyl)furan-3-carboxylic acid]
> 300 °C | O=C(O)c1cccc(-c2nc(-c3ccccc3O)n[nH]2)c1 [Compound 455]
247 to 248 °C | CN(C)c1cccc(-c2nnc(-c3ccc(C(=O)O)cc3)o2)c1 [Compound 3]
191 to 193 °C | O=C(O)Cc1ccc(-c2ncc(-c3ccc(F)cc3F)o2)cc1 [Compound 650]
257 to 259 °C | Cc1ccc(-c2cc(-c3cccc(C(=O)O)c3)no2)cc1 [Compound 573]
220 to 222 °C | CN(C)c1ccc(Cc2nnc(-c3cccc(C(=O)O)c3)o2)cc1 [Compound 85]
> 275 °C | Cc1ccc(S(=O)(=O)Nc2cccc(-c3nnc(-c4ccc(C(=O)O)cc4)o3)c2)cc1 [Compound 13, 4-{5-[3-(toluene-4-sulfonylamino)phenyl]-[1,3,4]oxadiazol-2-yl}benzoic acid]
233 to 234 °C | O=C(O)c1cccc(-c2nc(-c3ccccc3F)no2)c1 [Compound No. 506, 3-[3-(2-fluorophenyl)-[1,2,4]oxadiazole-5-yl] benzoic acid]
291 to 292 °C | O=C(O)c1ccc(-c2ncc(-c3ccc(F)c(F)c3)o2)cc1 [Compound 640]
295 to 297 °C | O=C(O)c1ccc(-c2ncc(-c3ccc(F)c(Cl)c3)o2)cc1 [Compound 649]
> 270 °C | CS(=O)(=O)Nc1cccc(-c2nnc(-c3ccc(C(=O)O)cc3)o2)c1 [Compound 12]
253 to 256 °C | O=C(O)c1cccc(-c2nnc(-c3ccc(C(=O)N4CCCCC4)cc3)o2)c1 [Compound 285]
228 to 235 °C | CN(C)C(=O)c1ccc(-c2nnc(-c3cccc(C(=O)O)c3)o2)cc1 [Compound 279]
248 to 250 °C | O=C(O)c1cccc(-c2cc(-c3ccc(CO)cc3)on2)c1 [Compound 575]
246 to 247 °C | O=C(O)c1ccc(-c2ncc(-c3ccsc3)o2)cc1 [Compound 558]
253 to 254 °C | Cc1ccc(-c2cc(-c3cccc(C(=O)O)c3)on2)cc1 [Compound 505]
319 to 321 °C | O=C(O)c1ccc(-c2cc(-c3cccc(F)c3)no2)cc1 [Compound 536]
190 to 192 °C | CC(C)c1cccc(-c2nnc(-c3cccc(C(=O)O)c3)o2)c1 [Compound 620]
233 to 234 °C | CCc1ccc(-c2cnc(-c3ccc(C(=O)O)cc3)o2)cc1 [Compound 634]
236 to 237 °C | CC(C)c1cccc(-c2cnc(-c3ccc(C(=O)O)cc3)o2)c1 [Compound 644]
275 to 278 °C | O=C(O)c1ccc(-c2nnc(-c3ccnc(Br)c3)o2)cc1 [Compound 292]
295 to 298 °C | CCOc1ccc(-c2n[nH]c(-c3cccc(C(=O)O)c3)n2)cc1 [Compound 461]
> 300 °C | Cc1ccc(-c2n[nH]c(-c3cccc(C(=O)O)c3)n2)cc1 [Compound 457]
242 to 243 °C | O=C(O)c1cccc(-c2cc(-c3cccc(F)c3)on2)c1 [Compound 475]
